From ChEMBL document CHEMBL2021902, “Type 1 phototherapeutic agents, part I: preparation and cancer cell viability studies of novel photolabile sulfenamides” (ACS Med Chem Lett, 2011)
Activity calls are given as the source filed them. The rule behind the calls is not given here.

What was measured:
Format in all cases: functional, cell-based
U-937 = assay: Cytotoxicity in UV-irradiated human U937 cells exposed to photosensitizer for 2 hrs before irradiation for 20 mins by WST-1 assay; conditions: for IC50: U-937, light or radiation study
KB = assay: Cytotoxicity in UV-irradiated human KB cells exposed to photosensitizer for 2 hrs before irradiation for 20 mins by WST-1 assay
HCT-116 = assay: Cytotoxicity in UV-irradiated human HCT116 cells exposed to photosensitizer for 2 hrs before irradiation for 20 mins by WST-1 assay
HT-29 = assay: Cytotoxicity in UV-irradiated human HT-29 cells exposed to photosensitizer for 2 hrs before irradiation for 20 mins by WST-1 assay

Compound | Activity (U-937) | IC50 (U-937) [µM] | Activity (KB) | Activity (HCT-116) | Activity (HT-29)
O=[N+]([O-])c1ccc(SN2Cc3ccccc3Cc3ccccc32)cc1 | Dose-dependent effect | 5.7 | – | – | –
O=[N+]([O-])c1ccc(SN2c3ccccc3Cc3ccccc32)cc1 | Dose-dependent effect | 1.3 | Active | Active | Active
O=[N+]([O-])c1ccc(SN2c3ccccc3N=Nc3ccccc32)cc1 | Dose-dependent effect | > 20 | – | – | –
O=[N+]([O-])c1ccc(SN2c3ccccc3Sc3ccccc32)cc1 | Dose-dependent effect | 12.4 | – | – | –
O=[N+]([O-])c1ccc(SN2c3ccccc3C=Cc3ccccc32)cc1 | Dose-dependent effect | 1.2 | Active | Active | Active
O=[N+]([O-])c1ccc(SN2Cc3ccccc3-c3ccccc32)cc1 | Dose-dependent effect | 7.3 | – | – | –
O=[N+]([O-])c1ccc(Sn2c3ccccc3c3ccccc32)cc1 | Dose-dependent effect | > 20 | – | – | –
O=[N+]([O-])c1ccc(SN(c2ccccc2)c2ccccc2)cc1 | Dose-dependent effect | 6.8 | – | – | –
CC1=Nc2ccc(Cl)cc2N(Sc2ccc([N+](=O)[O-])cc2)c2ccccc21 | Dose-dependent effect | 2 | – | – | –
O=[N+]([O-])c1ccc(SN2Cc3ccccc3Oc3ccccc32)cc1 | Dose-dependent effect | 17.2 | – | – | –
O=[N+]([O-])c1ccc(SN2c3ccccc3Oc3ccccc32)cc1 | Dose-dependent effect | > 20 | – | – | –
O=[N+]([O-])c1ccc(SN2CCc3ccccc3-c3ccccc32)cc1 | Dose-dependent effect | 6 | – | – | –
